Earlier results on one molecule are cited in patent US10660869B2, “Lactate powder and method for the preparation thereof” (Purac Biochem B.V., priority 2012, dated 2020).

For the data set the following is noted: 1000 mg of sample dissolved in 240 ml water.

As for `CC(O)C(=O)[O-].CC(O)C(=O)[O-].O.O.O.O.O.[Ca+2]` (stereo not shown) [PURACAL® PP/FCC, calcium lactate pentahydrate], the typical dissolution time was 25 s.
